The source of these data is US20080167324A1, “Thiazolymethyl and Oxazolylmethyl Heteroaryl Derivatives” (priority 2005, published 2008).

pKd: −log10 of the molar value.

For orientation: pKd means −log10 of the Kd, conventionally taken in molar units.

For this assay, the target named is benzodiazepine site of the GABAA receptor. Description: Ligand binding assay (3H-Ro15-1788 displacement, purified rat cortical membranes). To be noted: previously determined; used in the Cheng-Prusoff equation; read-out: Kd, binding dissociation constant of the radioligand.

Turning to `CCOC(=O)c1ncn2c1CN(C)C(=O)c1cc(F)ccc1-2` [^3H-Ro15-1788], the pKd is 9.00.
